Laboratory results taken from patent publication US20260317340A1, “COMPOUNDS, COMPOSITIONS, AND METHODS OF TREATING DISORDERS” (Chengdu Anticancer Bioscience, Ltd., priority 2023, published 2026).
Read-outs that look alike come from different tables or passages of the source.

How the values were obtained:
[1] = system: RPE-Neo or RPE-MYC or RPE-MYC expressing an EGFP-Histone 2B fusion protein; assay: Phenotypic screening assay: arrest in mitosis, change in DNA content (polyploidy), cell death; format: cell-based; settings: 20 nM to 20 μM, 24, 48 or 72 hours
Outline: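 RPE-Neo, RPE-MYC or RPE-MYC EGFP-H2B cells plated 18-24 h before treatment with compounds at 20 nM to 20 μM. Mitotic arrest or DNA-content change scored by automated imaging at 24, 48 or 72 h; proliferation by MTT. Values binned into A–D ranges.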

RPE-Neo or RPE-MYC cells = assay: MTT assay of cellular proliferation (proliferative arrest); format: cell-based; settings: read-out: Min. Effective conc. for Proliferative arrest (>50%)
[2] = read-out: Min. Effective conc. for Along with Cell Death
[3] = ≥5%, read-out: Min. Effective conc. for Mitotic Arrest (≥5%)
[4] = ≥5%, read-out: Min. Effective conc. for Polyploidy (≥5%)

Measured: minimal effective concentration

COc1ccc(CN2C(=O)CC(c3nc(C)no3)=Cc3ccc(-c4cnn(CC(C)(C)O)c4)cc32)cc1 [Compound 99, 8-(1-(2-Hydroxy-2-methylpropyl)-1H-pyrazol-4-yl)-1-(4-methoxybenzyl)-4-(3-methyl-1,2,4-oxadiazol-5-yl)-1,3-dihydro-2H-benzo[b]azepin-2-one]
0.001 to 1 µM: [1]; [2] | [1]; [3] | [1]; [4] | RPE-Neo or RPE-MYC cells

[2H]C([2H])([2H])Oc1ccc(CN2C(=O)CC(c3ncc(C)o3)=Cc3ccc(-c4cnn(CC(C)(C)O)c4)cc32)cc1 [Compound 100, 8-(1-(2-Hydroxy-2-methylpropyl)-1H-pyrazol-4-yl)-1-(4-(methoxy-d3)benzyl)-4-(5-methyloxazol-2-yl)-1,3-dihydro-2H-benzo[b]azepin-2-one]
0.001 to 1 µM: [1]; [2] | [1]; [3] | [1]; [4] | RPE-Neo or RPE-MYC cells

Cc1cnc(C2=Cc3ccc(-c4cnn(CC(C)(C)O)c4)cc3N(Cc3ccc(C)c(F)c3)C(=O)C2)o1 [Compound 101, 1-(3-fluoro-4-methylbenzyl)-8-(1-(2-hydroxy-2-methylpropyl)-1H-pyrazol-4-yl)-4-(5-methyloxazol-2-yl)-1,3-dihydro-2H-benzo[b]azepin-2-one]
0.001 to 1 µM: [1]; [2] | [1]; [3] | [1]; [4] | RPE-Neo or RPE-MYC cells

COc1ccc(CN2C(=O)CC(c3ncc(C)o3)=Cc3ccc(-c4cnn(CC(C)(C)O)c4)cc32)cc1F [Compound 102, 1-(3-fluoro-4-methoxybenzyl)-8-(1-(2-hydroxy-2-methylpropyl)-1H-pyrazol-4-yl)-4-(5-methyloxazol-2-yl)-1,3-dihydro-2H-benzo[b]azepin-2-one]
0.001 to 1 µM: [1]; [2] | [1]; [3] | [1]; [4] | RPE-Neo or RPE-MYC cells

COc1ccc(CN2C(=O)CC(c3ncc(C)o3)=Cc3ccc(-c4cnn(CC(C)(C)O)c4)cc32)cn1 [Compound 103, 8-(1-(2-Hydroxy-2-methylpropyl)-1H-pyrazol-4-yl)-1-((6-methoxypyridin-3-yl)methyl)-4-(5-methyloxazol-2-yl)-1,3-dihydro-2H-benzo[b]azepin-2-one]
0.001 to 1 µM: [1]; [2] | [1]; [3] | [1]; [4] | RPE-Neo or RPE-MYC cells

COc1ccc(C(=O)N2CCC(c3ncc(C)o3)=Cc3ccc(-c4cnn(CC(C)(C)O)c4)cc32)cc1 [Compound 104, (8-(1-(2-Hydroxy-2-methylpropyl)-1H-pyrazol-4-yl)-4-(5-methyloxazol-2-yl)-2,3-dihydro-1H-benzo[b]azepin-1-yl) (4-methoxyphenyl)methanone]
0.001 to 1 µM: [1]; [2] | [1]; [3] | [1]; [4] | RPE-Neo or RPE-MYC cells

COc1ccc(C(=O)N2CCC(c3ncc(C)o3)=Cc3ccc(-c4cnn(CC(C)(C)O)c4)cc32)cn1 [Compound 105, (8-(1-(2-Hydroxy-2-methylpropyl)-1H-pyrazol-4-yl)-4-(5-methyloxazol-2-yl)-2,3-dihydro-1H-benzo[b]azepin-1-yl)(6-methoxypyridin-3-yl)methanone]
0.001 to 1 µM: [1]; [2] | [1]; [3] | [1]; [4] | RPE-Neo or RPE-MYC cells
